Experimental findings from ChEMBL document CHEMBL5724914, “Linking interpersonal differences in gut microbiota composition and drug biotransformation activity” (2024) are described below.

Molecules are shown by their SMILES.

The nature of data set [1]: The drug is tested on Z-006 corresponding to mouse gut metagenome with ENA study accession number: PRJEB37062 and ENA sample accession number: ERS12561806 for biotransformation under anaerobic condition. The drug concentrations were measured over 9 timepoints collected between 0 and 24 hours of incubation by liquid-chromatography-coupled mass spectrometry (LC–MS). The settings on record: 2 µM.

For data set [2] the following is noted: human gut metagenome, 24 h, 2 µM.
Data set [3] can be described thus: The drug is tested on Z-007 corresponding to rat gut metagenome with ENA study accession number: PRJEB37062 and ENA sample accession number: ERS12561807 for biotransformation under anaerobic condition. The drug concentrations were measured over 9 timepoints collected between 0 and 24 hours of incubation by liquid-chromatography-coupled mass spectrometry (LC–MS). As to conditions: 2 µM.

Data set [4] is described as follows: The drug is tested on Z-024 corresponding to pig gut metagenome with ENA study accession number: PRJEB37062 and ENA sample accession number: ERS12561823 for biotransformation under anaerobic condition. The drug concentrations were measured over 9 timepoints collected between 0 and 24 hours of incubation by liquid-chromatography-coupled mass spectrometry (LC–MS). As to conditions: 2 µM.

The nature of data set [5]: The drug is tested on Z-008 corresponding to metagenome with ENA study accession number: PRJEB37062 and ENA sample accession number: ERS12561808 for biotransformation under anaerobic condition. The drug concentrations were measured over 9 timepoints collected between 0 and 24 hours of incubation by liquid-chromatography-coupled mass spectrometry (LC–MS). The settings on record: 2 µM.

Data set [6] is described as follows: The drug is tested on WLS-086 corresponding to human gut metagenome with ENA study accession number: PRJEB37062 and ENA sample accession number: ERS12561752 for biotransformation under anaerobic condition. The drug concentrations were measured over 9 timepoints collected between 0 and 24 hours of incubation by liquid-chromatography-coupled mass spectrometry (LC–MS). As to conditions: 2 µM.

For data set [7] the following is noted: human gut metagenome, 24 h, 2 µM. The source holds these as a separate data set.
Data set [8] is described as follows: The drug is tested on Z-009 corresponding to pig gut metagenome with ENA study accession number: PRJEB37062 and ENA sample accession number: ERS12561809 for biotransformation under anaerobic condition. The drug concentrations were measured over 9 timepoints collected between 0 and 24 hours of incubation by liquid-chromatography-coupled mass spectrometry (LC–MS). The settings on record: 2 µM.

Data set [9] is described as follows: The drug is tested on Z-003 corresponding to pig gut metagenome with ENA study accession number: PRJEB37062 and ENA sample accession number: ERS12561803 for biotransformation under anaerobic condition. The drug concentrations were measured over 9 timepoints collected between 0 and 24 hours of incubation by liquid-chromatography-coupled mass spectrometry (LC–MS). As to conditions: 2 µM.

The conditions of data set [10]: human gut metagenome, 24 h, 2 µM. This is another data set of the same source.
For data set [11] the following is noted: human gut metagenome, 24 h, 2 µM. This is another data set of the same source.
For data set [12] the following is noted: human gut metagenome, 24 h, 2 µM. The source holds these as a separate data set.
The nature of data set [13]: The drug is tested on WLS-007 corresponding to human gut metagenome with ENA study accession number: PRJEB37062 and ENA sample accession number: ERS12561742 for biotransformation under anaerobic condition. The drug concentrations were measured over 9 timepoints collected between 0 and 24 hours of incubation by liquid-chromatography-coupled mass spectrometry (LC–MS). As to conditions: 2 µM.

The conditions of data set [14]: human gut metagenome, 24 h, 2 µM. This is another data set of the same source.
Data set [15] is described as follows: The drug is tested on WLS-052 corresponding to human gut metagenome with ENA study accession number: PRJEB37062 and ENA sample accession number: ERS12561747 for biotransformation under anaerobic condition. The drug concentrations were measured over 9 timepoints collected between 0 and 24 hours of incubation by liquid-chromatography-coupled mass spectrometry (LC–MS). As to conditions: 2 µM.

Data set [16] can be described thus: The drug is tested on Z-010 corresponding to metagenome with ENA study accession number: PRJEB37062 and ENA sample accession number: ERS12561810 for biotransformation under anaerobic condition. The drug concentrations were measured over 9 timepoints collected between 0 and 24 hours of incubation by liquid-chromatography-coupled mass spectrometry (LC–MS). The settings on record: 2 µM.

Data set [17] in a line: The drug is tested on Z-011 corresponding to mouse gut metagenome with ENA study accession number: PRJEB37062 and ENA sample accession number: ERS12561811 for biotransformation under anaerobic condition. The drug concentrations were measured over 9 timepoints collected between 0 and 24 hours of incubation by liquid-chromatography-coupled mass spectrometry (LC–MS). The settings on record: 2 µM.

A short description of data set [18]: The drug is tested on WLS-077 corresponding to human gut metagenome with ENA study accession number: PRJEB37062 and ENA sample accession number: ERS12561750 for biotransformation under anaerobic condition. The drug concentrations were measured over 9 timepoints collected between 0 and 24 hours of incubation by liquid-chromatography-coupled mass spectrometry (LC–MS). As to conditions: 2 µM.

For data set [19] the following is noted: human gut metagenome, 24 h, 2 µM. The source holds these as a separate data set.
The conditions of data set [20]: human gut metagenome, 24 h, 2 µM. This is another data set of the same source.
Also: call rule not given here.

In the case of `COc1ccc2cc([C@H](C)C(=O)O)ccc2c1` [NAPROXEN], the “Bacterial Biotransformation” value in [1] was “Compound NOT metabolized”; in [2], “Compound metabolized”; in data set [3], “Compound NOT metabolized”; in data set [4], “Compound NOT metabolized”; in [5] it was “Compound NOT metabolized”; in [6] it was “Compound metabolized”. The “Bacterial Biotransformation” value in data set [7] was “Compound NOT metabolized”; in [8] it was “Compound NOT metabolized”; in data set [9] it was “Compound NOT metabolized”; in data set [10], “Compound metabolized”; in data set [11], “Compound metabolized”; in [12], “Compound NOT metabolized”. Moreover, the “Bacterial Biotransformation” value in [13] was “Compound NOT metabolized”; in data set [14], “Compound metabolized”; in data set [15] it was “Compound metabolized”; in [16], “Compound NOT metabolized”; in [17] it was “Compound NOT metabolized”; in [18], “Compound NOT metabolized”. Also, the “Bacterial Biotransformation” value in data set [19] and in data set [20] was “Compound metabolized” in each case.

Take `CN1CCC(OC(c2ccccc2)c2ccccc2)CC1`: the “Bacterial Biotransformation” value was “Compound NOT metabolized” in data set [1]; “Compound metabolized” in data set [2]; “Compound NOT metabolized” in data set [3]; “Compound metabolized” in [4]; “Compound NOT metabolized” in data set [5]; “Compound metabolized” in data set [6]. The “Bacterial Biotransformation” value in data set [7] is reported as “Compound NOT metabolized”; in [8], “Compound NOT metabolized”; in data set [9], “Compound NOT metabolized”; in data set [10], “Compound metabolized”; in data set [11], “Compound metabolized”; in data set [12], “Compound NOT metabolized”. Besides, the “Bacterial Biotransformation” value in data set [13] is on record as “Compound NOT metabolized”; in data set [14] it was “Compound metabolized”; in data set [15], “Compound NOT metabolized”; in [16], “Compound NOT metabolized”; in data set [17], “Compound NOT metabolized”; in data set [18] it was “Compound NOT metabolized”. The figures for the “Bacterial Biotransformation” value in [19] and in [20] were “Compound metabolized” and “Compound NOT metabolized”, respectively.

Regarding `CC(C)c1nc(N(C)S(C)(=O)=O)nc(-c2ccc(F)cc2)c1/C=C/[C@@H](O)C[C@@H](O)CC(=O)[O-].CC(C)c1nc(N(C)S(C)(=O)=O)nc(-c2ccc(F)cc2)c1/C=C/[C@@H](O)C[C@@H](O)CC(=O)[O-].[Ca+2]` [ROSUVASTATIN CALCIUM], the “Bacterial Biotransformation” value in data set [1] is on record as “Compound NOT metabolized”; in data set [2], “Compound metabolized”; in data set [3], “Compound NOT metabolized”; in data set [4], “Compound NOT metabolized”; in data set [5] it was “Compound NOT metabolized”; in data set [6] it was “Compound metabolized”. The “Bacterial Biotransformation” value is listed as “Compound NOT metabolized” in data set [7]; “Compound NOT metabolized” in data set [8]; “Compound NOT metabolized” in [9]; “Compound metabolized” in [10]; “Compound metabolized” in data set [11]; “Compound metabolized” in [12]. In addition, the “Bacterial Biotransformation” value was “Compound metabolized” in data set [13]; “Compound NOT metabolized” in data set [14]; “Compound metabolized” in data set [15]; “Compound NOT metabolized” in data set [16]; “Compound NOT metabolized” in data set [17]; “Compound metabolized” in data set [18]. In addition, the “Bacterial Biotransformation” value in [19] and in data set [20] was “Compound metabolized” each time.

Regarding `COc1ccc(CN2CCNCC2)c(OC)c1OC.Cl.Cl` [TRIMETAZIDINE DIHYDROCHLORIDE], the “Bacterial Biotransformation” value in [1], in data set [2], in data set [3], in data set [4], in data set [5] and in [6] was “Compound NOT metabolized” in each case. Further, the “Bacterial Biotransformation” value in [7], in [8], in data set [9], in data set [10], in data set [11] and in data set [12] was “Compound NOT metabolized” throughout. Moreover, the “Bacterial Biotransformation” value in data set [13], in [14], in [15], in data set [16], in [17] and in [18] was “Compound NOT metabolized” throughout. The “Bacterial Biotransformation” value in [19] and in data set [20] was “Compound NOT metabolized” each time.

`O=C1N=C([O-])NC1(c1ccccc1)c1ccccc1.[Na+]` [PHENYTOIN SODIUM]: the “Bacterial Biotransformation” value in [1] was “Compound NOT metabolized”; in data set [2], “Compound NOT metabolized”; in data set [3], “Compound NOT metabolized”; in [4], “Compound NOT metabolized”; in data set [5], “Compound NOT metabolized”; in data set [6], “Compound metabolized”. Moreover, the “Bacterial Biotransformation” value is listed as “Compound NOT metabolized” in [7]; “Compound NOT metabolized” in data set [8]; “Compound NOT metabolized” in data set [9]; “Compound metabolized” in [10]; “Compound NOT metabolized” in data set [11]; “Compound NOT metabolized” in data set [12]. The “Bacterial Biotransformation” value in data set [13] was “Compound metabolized”; in data set [14], “Compound metabolized”; in data set [15], “Compound metabolized”; in data set [16] it was “Compound NOT metabolized”; in data set [17], “Compound NOT metabolized”; in data set [18] it was “Compound NOT metabolized”. Further, the “Bacterial Biotransformation” value in [19] and in data set [20] was “Compound metabolized” in each case.
